Test results reported in patent US7410974B2, “Halogenated Quinazolinyl nitrofurans as antibacterial agents” (Ulysses Pharmaceutical Products, Inc., priority 2003, dated 2008).
≈ marks a conversion by molar mass, not a printed value. Where two headings read alike, the source gives them in different places.

Columns and labels:
S. aureus ATCC 29213 = assay: MIC broth microdilution (NCCLS); format: cell-based, Staphylococcus aureus; details: Staphylococcus aureus, ATCC29213; S. aureus ATCC 29213; read-out: MIC
Description: (§1) Minimal Inhibitory Concentration (MIC) Determination. Bacteria (primary strain panel, TABLE 1). Susceptibility tests were performed following the recommendations from the National Committee for Clinical Standards (NCCLS). The MICs were determined by a broth microdilution technique using a final volume of 100 μl of cation-adjusted Mueller Hinton Broth (MHBCA) and a bacterial inoculum of 10^5-10^6 Colony Forming Units (CFU)/ml. The inocula were verified and precisely determined by applying 10-μl drops of 10-fold dilutions onto Triptic Soy Agar plates. The CFU were counted after an incubation of 24 h at 35° C. Any experiment showing an inoculum that was more or less than 10^5-10^6 CFU/ml was rejected. Control antibiotics and test compounds were prepared at a concentration equivalent to 2-fold the highest desired final concentration. Compounds were then diluted directly in the 96-well microtiter plates by serial 2-fold dilutions using a multichannel pipette. Microtiter plates were incubated during 24 h at 35° C. and growth was recorded by using a microtiterplate reader at 650 nm as well as by visual observation. The MIC was defined as the lowest concentration of compound yielding no visible growth. […] Fastidious bacteria. The medium used for Listeria monocytogenes, Neisseria meningitidis, and Campylobacter jejuni was MHBCA containing 2% laked horse blood. The medium used for Haemophilus influenzae and Branhamella (Moraxella) catarrhalis was HTM as recommended by the NCCLS. Cultures of these fastidious bacteria were incubated at 35° C. in a 5% CO2 atmosphere. […] The medium used for Bacteroides fragilis was Wilkins Chalgren broth and growth was allowed under an anaerobic atmosphere at 35° C. for 48 hours.

S. aureus MRSA COL = assay: MIC broth microdilution (NCCLS); format: cell-based, Staphylococcus aureus; details: Staphylococcus aureus, MRSA, S. aureus MRSA COL; read-out: MIC
Description: as §1, with “hours. […]” for “hours.”

[1] = system: S. epidermidis ATCC 12228; assay: MIC broth microdilution (NCCLS); format: cell-based, Staphylococcus epidermidis; details: Staphylococcus epidermidis, ATCC12228; S. epidermidis ATCC 12228; read-out: MIC
Description: as §1

[2] = system: S. saprophyticus ATCC 15305; assay: MIC broth microdilution (NCCLS); format: cell-based, Staphylococcus saprophyticus; details: Staphylococcus saprophyticus, ATCC15305; S. saprophyticus ATCC 15305; read-out: MIC
Description: as §1

E. faecalis ATCC 29212 = assay: MIC broth microdilution (NCCLS); format: cell-based, Enterococcus faecalis; details: Enterococcus faecalis, ATCC29212; E. faecalis ATCC 29212; read-out: MIC
Description: as §1

E. faecium ATCC 35667 = assay: MIC broth microdilution (NCCLS); format: cell-based, Enterococcus faecium; details: Enterococcus faecium, ATCC35667, E. faecium ATCC 35667; read-out: MIC
Description: as §1

E. coli ATCC 25922 = assay: MIC broth microdilution (NCCLS); format: cell-based, Escherichia coli
Description: as §1

A. baumannii ATCC 19606 = assay: MIC broth microdilution (NCCLS); format: cell-based, Acinetobacter baumannii; details: Acinetobacter baumannii, ATCC19606, read-out: MIC
Description: as §1

[3] = system: Y. enterocolytica ATCC 23715; assay: MIC broth microdilution (NCCLS); format: cell-based, Yersinia enterocolytica; details: Yersinia, ATCC23715, read-out: MIC
Description: as §1

[4] = system: L. monocytogenes ATCC 13932; assay: MIC broth microdilution (NCCLS), fastidious bacteria; format: cell-based; details: Listeria monocytogenes, ATCC13932, MHBCA with 2% laked horse blood, 5% CO2
Description: as §1

M. smegmatis ATCC 19420 = assay: as above; format: cell-based, Mycobacterium smegmatis; details: Mycolicibacterium smegmatis, ATCC19420, read after 48 hours
Description: as §1

E. faecium VanA = assay: MIC broth microdilution, antibiotic resistant strain panel; format: cell-based; details: Enterococcus faecium
Description: as §1
(§2) Finally, compounds were also tested against populations of various clinical strains (antibiotic resistant strain panel, TABLE 1).

B. fragilis ATCC 25285 = assay: MIC broth microdilution (NCCLS), anaerobic; format: cell-based; details: Bacteroides fragilis, ATCC25285; B. fragilis ATCC 25285; Wilkins Chalgren broth, anaerobic, 48 hours; read-out: MIC
Description: as §1

[5] = system: E. coli ATCC 35150 (O157:H7); assay: MIC broth microdilution, E. coli strains; format: cell-based; details: Escherichia coli, ATCC35150
Description: as §1, §2

E. coli Ec022c (EIEC) = assay: MIC broth microdilution, E. coli strains; format: cell-based; details: Escherichia coli, pathotype EIEC
Description: as §1, §2

E. coli Ec027c (EIEC) = assay: MIC broth microdilution, E. coli strains; format: cell-based; details: Escherichia coli, pathotype EIEC
Description: as §1, §2

E. coli Ec117c (EIEC) = assay: MIC broth microdilution, E. coli strains; format: cell-based; details: Escherichia coli, pathotype EIEC
Description: as §1, §2

E. coli Ec118c (EIEC) = assay: MIC broth microdilution, E. coli strains; format: cell-based; details: Escherichia coli, pathotype EIEC
Description: as §1, §2

E. coli Ec119c (EIEC) = assay: MIC broth microdilution, E. coli strains; format: cell-based; details: Escherichia coli, pathotype EIEC
Description: as §1, §2

[6] = system: E. coli d25-ALR-pen14 (O157:H7); assay: MIC broth microdilution, E. coli strains; format: cell-based; details: Escherichia coli
Description: as §1, §2

[7] = system: E. coli d4-OLR-pen10 (O157:H7); assay: MIC broth microdilution, E. coli strains; format: cell-based; details: Escherichia coli
Description: as §1, §2

[8] = Escherichia coli, ATCC25922, E. coli ATCC 25922 (Reference), read-out: MIC

Work on `CO[C@H]1/C=C/O[C@@]2(C)Oc3c(C)c(O)c4c(O)c(c(/C=N/N5CCN(C)CC5)c(O)c4c3C2=O)NC(=O)/C(C)=C\C=C\[C@H](C)[C@H](O)[C@@H](C)[C@@H](O)[C@@H](C)[C@H](OC(C)=O)[C@@H]1C` [Rifampicin] yielded an MIC (S. aureus ATCC 29213) of 0.008 to 0.015 µg/mL (≈ 0.00972 to 0.0182 µM), an MIC (S. aureus MRSA COL) of 0.008 to 0.015 µg/mL (≈ 0.00972 to 0.0182 µM) and an MIC [1] of 0.004 to 0.008 µg/mL (≈ 0.00486 to 0.00972 µM). It also gave an MIC [2] of 0.03 µg/mL (≈ 0.0365 µM), an MIC (E. faecalis ATCC 29212) of 0.5 to 1 µg/mL (≈ 0.608 to 1.22 µM) and an MIC (E. faecium ATCC 35667) of 32 µg/mL (≈ 38.9 µM). For the same compound, the MIC (E. coli ATCC 25922; [8]) was 8 µg/mL (≈ 9.72 µM), the MIC (A. baumannii ATCC 19606) was 4 µg/mL (≈ 4.86 µM) and the MIC [3] was 8 µg/mL (≈ 9.72 µM). For the same compound, the MIC [4] was 0.06 µg/mL (≈ 0.0729 µM), the MIC (M. smegmatis ATCC 19420) was 8 µg/mL (≈ 9.72 µM) and the MIC (E. faecium VanA) was over 128 µg/mL.
Work on `CN(C)[C@@H]1C(O)=C(C(N)=O)C(=O)[C@@]2(O)C(O)=C3C(=O)c4c(O)cccc4[C@@](C)(O)[C@H]3C[C@@H]12` [Tetracycline] yielded an MIC (S. aureus ATCC 29213) of 0.5 to 1 µg/mL (≈ 1.13 to 2.25 µM), an MIC (S. aureus MRSA COL) of 2 µg/mL (≈ 4.5 µM) and an MIC [2] of 1 µg/mL (≈ 2.25 µM). It also gave an MIC (E. faecalis ATCC 29212) of 16 to 32 µg/mL (≈ 36 to 72 µM), an MIC (E. coli ATCC 25922; E. coli ATCC 25922 (Reference)) of 2 µg/mL (≈ 4.5 µM) and an MIC (E. coli ATCC 25922; [8]) of 1 to 2 µg/mL (≈ 2.25 to 4.5 µM). For the same compound, the MIC (A. baumannii ATCC 19606) was 16 µg/mL (≈ 36 µM), the MIC [3] was over 32 µg/mL and the MIC (B. fragilis ATCC 25285) was 0.25 µg/mL (≈ 0.563 µM). The MIC [5] was 2 µg/mL (≈ 4.5 µM), the MIC (E. coli Ec022c (EIEC)) was 2 µg/mL (≈ 4.5 µM) and the MIC (E. coli Ec027c (EIEC)) was over 32 µg/mL. It also gave an MIC (E. coli Ec117c (EIEC)) of over 32 µg/mL, an MIC (E. coli Ec118c (EIEC)) of 4 µg/mL (≈ 9 µM) and an MIC (E. coli Ec119c (EIEC)) of over 32 µg/mL. For the same compound, the MIC [6] was over 32 µg/mL and the MIC [7] was over 32 µg/mL.
